≈ marks a conversion by molar mass, not a printed value.
How the values were obtained:
Assay type in all cases: functional, cell-based
HT-29 = assay: Cytotoxicity against human HT29 cells
[1] = Cytotoxicity against mouse SCHABEL cells
P388 = assay: Cytotoxicity against mouse P388 cells
A549 = assay: Cytotoxicity against human A549 cells
SK-MEL-28 = assay: Cytotoxicity against human SK-MEL-28 cells

SMILES	IC50 (HT-29)	IC50 [1] [µg/mL]	IC50 (P388)	IC50 (A549)	IC50 (SK-MEL-28) [µg/mL]
C=C1C(=O)O[C@@H]2/C=C(\CO)CC/C=C(\C)C[C@H](OC(=O)/C(C)=C\COC(C)=O)[C@@H]12	5 µg/mL	2.5 (≈ 6.18 µM)	2.5 µg/mL	5 µg/mL	5 (≈ 12.4 µM)
C=C1C(=O)O[C@@H]2/C=C(\CO)CC/C=C(\C)C[C@H](OC(=O)C(=C)[C@H](O)CO)[C@@H]12 [CNICIN]	13.2 µM	–	6.6 µM	13.2 µM	–
C=C1C(=O)O[C@H]2[C@H]1[C@@H](OC(=O)C(=C)[C@@H](O)CO)C[C@]1(C)[C@@H]2[C@@H](C=O)CC[C@H]1O [MALACITANOLIDE]	0.12 µg/mL	0.12 (≈ 0.304 µM)	0.12 µg/mL	0.12 µg/mL	0.12 (≈ 0.304 µM)
